# Results as given in publication PMC10817917, “Alkyl deoxyglycoside-polymyxin combinations against critical priority carbapenem-resistant gram-negative bacteria” (Scientific Reports, 2024).
# “Also recorded” adds a separate entry of the source. Like-named read-outs stand apart in the source and are kept apart here.
# Tests used:
# P. aeruginosa CQ4924 = assay: Broth microdilution MIC, glycosides with or without polymyxins; type: cell-based, Pseudomonas aeruginosa; settings: for MIC: Pseudomonas aeruginosa, CQ4924
# [1] = PE vs phosphatidylcholine (PC); cited from earlier work
# K. pneumoniae CQ1947 = assay: Broth microdilution MIC, glycosides with or without polymyxins; type: cell-based, Klebsiella pneumoniae; settings: for MIC: Klebsiella pneumoniae, CQ1947
# E. cloacae CQ1941 = assay: Broth microdilution MIC/MBC, glycosides with or without polymyxins; type: cell-based; settings: for MIC: Enterobacter cloacae, CQ1941
# K. pneumoniae CQ1942 = assay: Broth microdilution MIC, glycosides with or without polymyxins; type: cell-based, Klebsiella pneumoniae; settings: for MIC: Klebsiella pneumoniae, CQ1942
# [2] = alone, read-out: MICA (MIC of each compound individually)
# [3] = combination with the lowest FICI
# [4] = compound + colistin, lowest FICI
smiles,measurement,setting,value
"CCCCCCCCCCCCO[C@@H]1C[C@@H](O)[C@H](O)[C@@H](CO)O1 [Compound 4, dodecyl 2-deoxy-α-D-arabino-hexopyranoside]",MIC of colistin in combination with the compound,"P. aeruginosa CQ4924; Cpd conc. 0.4 μg/mL, strain H",> 0.5 mg/L
same,MIC of colistin in combination with the compound,"P. aeruginosa CQ4924; Cpd conc. 0.8 μg/mL, strain H",> 0.5 mg/L
same,MIC of colistin in combination with the compound,"P. aeruginosa CQ4924; Cpd conc. 3.125 μg/mL, strain H",> 0.5 mg/L
same,MIC of colistin in combination with the compound,"P. aeruginosa CQ4924; Cpd conc. 6.25 μg/mL, strain H",> 0.5 mg/L
same,MIC of colistin in combination with the compound,"P. aeruginosa CQ4924; Cpd conc. 12.5 μg/mL, strain H",> 0.5 mg/L
same,MIC of colistin in combination with the compound,"P. aeruginosa CQ4924; Cpd conc. […], strain H",> 0.5 mg/L
same,MIC of compound in combination with PMB,"P. aeruginosa CQ4924; PMB 0.25 μg/mL, strain H",> 100 mg/L
same,MIC of compound in combination with PMB,"P. aeruginosa CQ4924; PMB 0.5 μg/mL, strain H",> 100 mg/L
same,MIC,"P. aeruginosa CQ4924; agent alone, no adjuvant (polymyxin conc. 0), strain H, read-out: MIC",> 100 mg/L
same,MIC,P. aeruginosa CQ4924; [2],> 100 mg/L
same,MIC of compound in combination with colistin,"P. aeruginosa CQ4924; colistin 0.25 μg/mL, strain H",> 100 mg/L
same,interaction with phosphatidylethanolamine (PE),[1],Non PE-binder; also recorded: limited affinity towards PE
same,MIC of colistin in combination with the compound,"K. pneumoniae CQ1947; Cpd conc. 0.4 μg/mL, strain F",0.5 mg/L
same,MIC of colistin in combination with the compound,"K. pneumoniae CQ1947; Cpd conc. 0.8 μg/mL, strain F",0.5 mg/L
same,MIC of colistin in combination with the compound,"K. pneumoniae CQ1947; Cpd conc. 3.125 μg/mL, strain F",0.5 mg/L
same,MIC of colistin in combination with the compound,"K. pneumoniae CQ1947; Cpd conc. 6.25 μg/mL, strain F",0.5 mg/L
same,MIC of colistin in combination with the compound,"K. pneumoniae CQ1947; Cpd conc. 12.5 μg/mL, strain F",0.5 mg/L
same,MIC of colistin in combination with the compound,"K. pneumoniae CQ1947; Cpd conc. […], strain F",0.5 mg/L
same,MIC,"K. pneumoniae CQ1947; agent alone, no adjuvant (polymyxin conc. 0), strain F, read-out: MIC",> 100 mg/L
same,MIC,K. pneumoniae CQ1947; [2],> 100 mg/L
same,MIC of compound in combination with PMB,"K. pneumoniae CQ1947; PMB 0.25 μg/mL, strain F",> 100 mg/L
same,MIC of compound in combination with PMB,"K. pneumoniae CQ1947; PMB 0.5 μg/mL, strain F",> 100 mg/L
same,MIC of compound in combination with colistin,"K. pneumoniae CQ1947; colistin 0.25 μg/mL, strain F",> 100 mg/L
same,MIC of compound in combination with colistin,"K. pneumoniae CQ1947; colistin 0.5 μg/mL, strain F",≤ 0.1 mg/L
same,MICA(A + B) (MIC of compound in combination with colistin),K. pneumoniae CQ1947; [3],0.4 mg/L
same,MICB(A + B) (MIC of colistin in combination with compound),K. pneumoniae CQ1947; [3],0.5 mg/L
same,Interpretation (of FICI),K. pneumoniae CQ1947; compound + colistin,Indifferent (1.0 to 4.0 were indifferent)
same,FICI,K. pneumoniae CQ1947; [4],1.002
same,MIC of colistin in combination with the compound,"E. cloacae CQ1941; Cpd conc. 0.4 μg/mL, strain D",0.5 mg/L
same,MIC of colistin in combination with the compound,"E. cloacae CQ1941; Cpd conc. 0.8 μg/mL, strain D",0.5 mg/L
same,MIC of colistin in combination with the compound,"E. cloacae CQ1941; Cpd conc. 3.125 μg/mL, strain D",0.5 mg/L
same,MIC of colistin in combination with the compound,"E. cloacae CQ1941; Cpd conc. 6.25 μg/mL, strain D",0.5 mg/L
same,MIC of colistin in combination with the compound,"E. cloacae CQ1941; Cpd conc. 12.5 μg/mL, strain D",0.5 mg/L
same,MIC of colistin in combination with the compound,"E. cloacae CQ1941; Cpd conc. […], strain D",0.5 mg/L
same,MIC,"E. cloacae CQ1941; agent alone, no adjuvant (polymyxin conc. 0), strain D, read-out: MIC",> 100 mg/L
same,MIC,E. cloacae CQ1941; [2],> 100 mg/L
same,MIC of compound in combination with PMB,"E. cloacae CQ1941; PMB 0.25 μg/mL, strain D",> 100 mg/L
same,MIC of compound in combination with PMB,"E. cloacae CQ1941; PMB 0.5 μg/mL, strain D",≤ 0.1 mg/L
same,MIC of compound in combination with colistin,"E. cloacae CQ1941; colistin 0.25 μg/mL, strain D",> 100 mg/L
same,MIC of compound in combination with colistin,"E. cloacae CQ1941; colistin 0.5 μg/mL, strain D",≤ 0.1 mg/L
same,MICA(A + B) (MIC of compound in combination with colistin),E. cloacae CQ1941; [3],0.4 mg/L
same,MICB(A + B) (MIC of colistin in combination with compound),E. cloacae CQ1941; [3],0.5 mg/L
same,Interpretation (of FICI),E. cloacae CQ1941; compound + colistin,Indifferent (1.0 to 4.0 were indifferent)
same,FICI,E. cloacae CQ1941; [4],1.002
same,MIC of colistin in combination with the compound,"K. pneumoniae CQ1942; Cpd conc. 0.4 μg/mL, strain E",0.5 mg/L
same,MIC of colistin in combination with the compound,"K. pneumoniae CQ1942; Cpd conc. 0.8 μg/mL, strain E",0.5 mg/L
same,MIC of colistin in combination with the compound,"K. pneumoniae CQ1942; Cpd conc. 3.125 μg/mL, strain E",0.5 mg/L
same,MIC of colistin in combination with the compound,"K. pneumoniae CQ1942; Cpd conc. 6.25 μg/mL, strain E",0.5 mg/L
same,MIC of colistin in combination with the compound,"K. pneumoniae CQ1942; Cpd conc. 12.5 μg/mL, strain E",0.5 mg/L
same,MIC of colistin in combination with the compound,"K. pneumoniae CQ1942; Cpd conc. […], strain E",0.5 mg/L
same,MIC,"K. pneumoniae CQ1942; agent alone, no adjuvant (polymyxin conc. 0), strain E, read-out: MIC",> 100 mg/L
same,MIC,K. pneumoniae CQ1942; [2],> 100 mg/L
same,MIC of compound in combination with PMB,"K. pneumoniae CQ1942; PMB 0.25 μg/mL, strain E",> 100 mg/L
same,MIC of compound in combination with PMB,"K. pneumoniae CQ1942; PMB 0.5 μg/mL, strain E",1.6 mg/L
same,MIC of compound in combination with colistin,"K. pneumoniae CQ1942; colistin 0.25 μg/mL, strain E",> 100 mg/L
same,MIC of compound in combination with colistin,"K. pneumoniae CQ1942; colistin 0.5 μg/mL, strain E",≤ 0.1 mg/L
same,MICA(A + B) (MIC of compound in combination with colistin),K. pneumoniae CQ1942; [3],0.4 mg/L
same,MICB(A + B) (MIC of colistin in combination with compound),K. pneumoniae CQ1942; [3],0.5 mg/L
same,Interpretation (of FICI),K. pneumoniae CQ1942; compound + colistin,Indifferent (1.0 to 4.0 were indifferent)
same,FICI,K. pneumoniae CQ1942; [4],1.002
